Results on 17 molecules are retold here after PubChem BioAssay (NCI).

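Method: 48-hour compound exposure of cells in 96-well plates, five concentrations, linear interpolation of endpoints. GI50: concentration for 50% inhibition of growth. TGI: concentration producing complete growth inhibition.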

Holding throughout (test): growth of human tumour cells (NCI), 48 h
In experiment [1] the test system is SNB-75 CNS.
Experiment [2] has as its system COLO 205 colon.
Experiment [3] deals with SN12C renal.
Experiment [4] deals with UO-31 renal.
Experiment [5] concerns HCT-116 colon.
Experiment [6] has as its system RXF 393 renal.
The subject of experiment [7] is A549 NSCLC.
The test system of experiment [8] is MCF7 breast.
The test system of experiment [9] is BT-549 breast.
Experiment [10] concerns T-47D breast.

Consider `Cc1ccccc1NC(=O)C(=O)C(C#N)c1ccccc1C` (centres undefined), for which the TGI in [1], in experiment [2], in experiment [3], in experiment [4], in experiment [5] and in [6] was over 100 µM in each case. Moreover, the TGI in [7] was over 100 µM.

In the case of `C=C1CCC2[C@@H](CCC3[C@]2(C)CCC[C@]3(C)C(=O)OC)C1CC=O` (some centres undefined), the TGI in [2] was found to be 35.5 µM; in experiment [3], 36.7 µM; in experiment [4], 28.9 µM; in [5] it was 29.4 µM; in [7], 42.5 µM. The figures for the GI50 in [4] and in experiment [7] were 14.8 µM and 21 µM, respectively.

As for `N#CC(C#N)c1ccc(C(=O)N2CCC[C@H]2CO)cc1`, the TGI in experiment [1], in [2], in experiment [3], in experiment [4], in [6] and in [7] was over 100 µM each time.

Turning to `O=S(=O)(c1cccc(N=C=S)c1)c1cccc(N=C=S)c1`, the TGI in experiment [2] is 38.1 µM; in experiment [3], 37.7 µM; in [4], 75.1 µM; in experiment [5] it was 32 µM; in experiment [6], 30 µM; in experiment [7], over 100 µM.

On to `Cc1cc(C)nc(NS(=O)(=O)c2ccc(Nc3c4ccccc4nc4c(C(=O)Nc5ccc(S(=O)(=O)N=C(N)N)cc5)cccc34)cc2)n1`, for which the TGI in [1] was 88.5 µM; in experiment [2] it was over 100 µM; in experiment [3], over 100 µM; in experiment [4], over 100 µM; in experiment [6] it was 85.1 µM; in experiment [7], over 100 µM.

As for `O=C(O)/C=C/c1nc2ccccc2c(=O)o1`, the TGI in experiment [1], in experiment [2], in [3], in experiment [4], in experiment [5] and in experiment [7] was over 100 µM throughout.

Regarding `N#CC1=C(/N=C/c2ccccc2)Oc2c(ccc3ccccc23)C1c1ccccc1` (centres undefined), the GI50 was 421 nM in experiment [8]; 594 nM in [2]; 951 nM in experiment [9]; 822 nM in experiment [3]; 0.452 µM in experiment [4]; 0.427 µM in experiment [5]. For the same molecule, the GI50 in [7] is 0.95 µM. Also, the TGI was over 100 µM in [8]; over 24.5 µM in experiment [9]; over 100 µM in experiment [3]; over 100 µM in experiment [4]; over 47.8 µM in experiment [5]; over 100 µM in experiment [7].

As to `CCOC(=O)/C(C#N)=C(O)/C(=C\c1ccc(Br)cc1)NC(=O)c1ccccc1`, the TGI is over 100 µM in experiment [1]; over 100 µM in [2]; over 100 µM in [3]; over 100 µM in [4]; 34.5 µM in experiment [5]; over 100 µM in experiment [7].

Regarding `COCCNC(=O)C1C(=O)C(=O)N(CCOC)C1=O` (centres undefined), the TGI in experiment [1], in experiment [2], in [3], in experiment [4], in experiment [5] and in [6] was over 100 µM in each case. This molecule showed a TGI in experiment [7] of over 100 µM.

As to `COc1cc2c(cc1OC)-c1ncc3c(OC)c(OC)c(OC)cc3c1C2`, the GI50 in experiment [1] is 28.9 µM; in experiment [8] it was 4140 nM; in experiment [2] it was over 100000 nM; in [4] it was 3.41 µM; in [5], 8.81 µM; in experiment [10] it was 40.8 µM. The GI50 in experiment [7] is 19.1 µM. The TGI in experiment [1] is over 100 µM; in experiment [8], 18.7 µM; in experiment [2], over 100 µM; in experiment [4], 15.7 µM; in [5], 64.7 µM; in experiment [10], over 100 µM. In experiment [7], this molecule returned a TGI of 40.7 µM.

As to `CC(C)=CC(=O)N(C)C1C2CN3CCC(O2)C13` (centres undefined), the TGI in experiment [1], in [2], in [3], in [4], in experiment [5] and in experiment [6] was over 100 µM each time. In [7], this molecule returned a TGI of over 100 µM.

For the molecule `O=S(=O)(/C=C/C(=C/c1ccccc1)S(=O)(=O)c1ccccc1)c1ccccc1`, the TGI in experiment [1] amounted to 3.43 µM; in experiment [2] it was 4.31 µM; in experiment [3], 3.43 µM; in [4] it was 3.22 µM; in experiment [5], 3.13 µM; in experiment [6], 3.19 µM. The molecule also gave a TGI in experiment [7] of 4.65 µM.

For `CCCCCCCCCCCCC(Br)C(=O)NCC(N)=O` (centres undefined), the TGI in experiment [1] stood at 11.6 µM; in [2] it was 39.2 µM; in experiment [4], 6.92 µM; in experiment [5], 3.72 µM; in experiment [6], 8.52 µM; in experiment [7] it was 34.7 µM.

On to `N#Cc1ccc(C=NC23CC4CC(CC(C4)C2)C3)cc1`, for which the TGI in [2], in experiment [3], in [4], in experiment [5], in experiment [6] and in experiment [7] was over 100 µM throughout.

`Cc1ccc(NC(=O)CC2C(=O)Nc3ccccc3S2(=O)=O)c(C)c1` (centres undefined): the TGI in [1] turned out to be 38.6 µM; in experiment [3], 39.3 µM; in experiment [4], 39.8 µM; in [5], 24.9 µM; in [6], 41 µM; in [7] it was 36.8 µM.

On to `C=CNC(=O)NC(=O)CSc1nnc(-c2ccccc2NC(=O)C(F)(F)F)c(=O)[nH]1`, for which the TGI in experiment [1] is 0.968 µM; in experiment [2] it was over 100 µM; in [3], over 100 µM; in [4], over 100 µM; in experiment [5], over 100 µM; in experiment [6] it was over 100 µM. Moreover, in experiment [7], the TGI is over 100 µM.

For `NC(=O)NNC(=O)NC12CC3CC(CC(C3)C1)C2`, the TGI in experiment [1], in experiment [2], in experiment [3], in experiment [4], in experiment [5] and in [6] was over 100 µM each time. The TGI in [7] was over 100 µM.
